In ChEMBL document CHEMBL5137017, “Identification of NVP-CLR457 as an Orally Bioavailable Non-CNS-Penetrant pan-Class IA Phosphoinositol-3-Kinase Inhibitor” (J Med Chem, 2022):
Values joined by “and” are separate entries in the source; they are usually repeats but may differ in a detail not shown here. Equal values may be shown once. One block for each molecule: values may come before it.

Legend:
[1] = Brain to blood ratio in OF1 mouse at 1 mg/kg, iv measured at 1 hr post dose by LC-MS/MS analysis; type: ADME, organism-based; settings: brain and blood, read-out: BBR
[2] = cells; settings: Rattus norvegicus, Rat1, 1 h
[3] = Brain to blood ratio in OF1 mouse at 1 mg/kg, iv measured at 5 mins post dose by LC-MS/MS analysis; type: ADME, organism-based; settings: brain and blood, read-out: BBR
[4] = target: T1, Serine/threonine-protein kinase mTOR (Homo sapiens, UniProt P42345); assay: Displacement of Alexa Fluor labelled Tracer-314 from human N-terminal GST-tagged mTOR incubated for 1 hr by TR-FRET assay
[5] = target: T2, Tubulin (Homo sapiens) (UniProt P68371+Q9H4B7+P0DPH7+P68366+Q13509+Q71U36+P04350+Q3ZCM7+P07437+P68363+Q9BQE3+Q6PEY2+Q13885+Q9BVA1+Q9BUF5); assay: Binding affinity to tubulin in human A2058 cells assessed as condensed DNA score at 5 uM measured after 6 hrs by DiffQuick staining based microscopic analysis; type: cell-based
[6] = target: T2, Tubulin (Homo sapiens); assay: Binding affinity to tubulin in human A2058 cells assessed as condensed DNA score at 5 uM measured after 24 hrs by DiffQuick staining based microscopic analysis; type: cell-based
[7] = target: T1, Serine/threonine-protein kinase mTOR; assay: Binding affinity to human N-terminal GST-tagged mTOR assessed as phosphorylated 4EBP1 by TR-FRET assay
[8] = AUC in Sprague-Dawley rat at 1 mg/kg, iv measured for 0.083 to 48 hrs by LC-MS/MS analysis; type: ADME, organism-based; set-up: time upper 48 hrs, dose 1 mg/kg, time lower 0.083 hrs, route iv; settings: in vivo
[9] = Drug concentration in OF1 mouse brain at 1 mg/kg, iv measured at 1 hr post dose by LC-MS/MS analysis; type: ADME, organism-based; settings: in vivo
[10] = Drug concentration in OF1 mouse brain at 1 mg/kg, iv measured at 5 mins post dose by LC-MS/MS analysis; type: ADME, organism-based; settings: in vivo
[11] = Drug concentration in OF1 mouse blood at 1 mg/kg, iv measured at 5 mins post dose by LC-MS/MS analysis; type: ADME, organism-based; settings: whole blood, read-out: Ct
[12] = Half life in Sprague-Dawley rat at 3 mg/kg, po or iv measured upto 24 hrs by LC-MS/MS analysis; type: ADME, organism-based; settings: in vivo
[13] = Oral bioavailability in Sprague-Dawley rat at 3 mg/kg measured for 0.25 to 24 hrs by LC-MS/MS analysis; type: ADME, organism-based; settings: in vivo, time 0.25-24 hrs
[14] = Volume of distribution at steady state in Sprague-Dawley rat at 3 mg/kg, po or iv measured upto 24 hrs by LC-MS/MS analysis; type: ADME, organism-based; settings: in vivo
[15] = Stability in human liver microsomes assessed as hepatic extraction preincubated for 3 mins followed by NADPH addition and measured after 60 mins; type: ADME, Microsome; settings: read-out: ERH
[16] = Stability in mouse liver microsomes assessed as hepatic extraction preincubated for 3 mins followed by NADPH addition and measured after 60 mins; type: ADME, Microsome; settings: time 63 min, read-out: ERH
[17] = Stability in rat liver microsomes assessed as hepatic extraction preincubated for 3 mins followed by NADPH addition and measured after 60 mins; type: ADME, Microsome; settings: read-out: ERH
[18] = Drug concentration in OF1 mouse blood at 1 mg/kg, iv measured at 1 hr post dose by LC-MS/MS analysis; type: ADME, organism-based; settings: whole blood, read-out: Ct
[19] = 1-octanol, logP of the compound at pH 7.4; type: physicochemical

Kp at 1 h [1]: 0.93
IC50 [2]: 9020 nM
Kp at 5 min [3]: 1.2
Compound: Nc1cc(C(F)(F)F)c(-c2cc(NC(CO)Cc3ccccc3)nc(N3CCOCC3)n2)cn1 (racemic)

IC50 [4]: 1340 nM
IC50 [2]: 83 nM
Compound: C[C@H](O)[C@@H]1COC(=O)N1c1nc(-c2cnc(N)nc2C(F)(F)F)cc(N2CCOCC2)n1

IC50 [4]: 2000 nM
IC50 [2]: 61 nM
Compound: Nc1ncc(-c2cc(N3CCOCC3)nc(N3C(=O)O[C@@H]4COC[C@@H]43)n2)c(C(F)(F)F)n1

IC50 [2]: 152 nM
Compound: Nc1ncc(-c2cc(N3CCCOC3=O)nc(N3CCOCC3)n2)c(C(F)(F)F)n1

IC50 [4]: > 9100 nM
IC50 [2]: 137 nM
Compound: Nc1ncc(-c2cc(N3CCOC3=O)nc(N3CCOCC3)n2)c(C(F)(F)F)n1

IC50 [4]: 6200 nM
Activity [5]: < 2%
Activity [6]: < 2%
IC50 [2]: 1460 nM
Compound: Nc1cc(C(F)(F)F)c(-c2cc(N3CCN(c4ccccc4)C3=O)nc(N3CCOCC3)n2)cn1

IC50 [4]: 1720 nM
IC50 [2]: 30 nM
Compound: C[C@H]1[C@@H](CO)OC(=O)N1c1nc(-c2cnc(N)nc2C(F)(F)F)cc(N2CCOCC2)n1

Kp at 1 h [1]: 0.11
IC50 [2]: 1760 nM
Kp at 5 min [3]: 0.11
Compound: C[C@H]1COC(=O)N1c1nc(-c2cnc(N)cc2C(F)(F)F)cc(N2CCOCC2)n1

Activity [5]: < 2%
Activity [6]: < 2%
IC50 [2]: 14 nM
Compound: Cn1c(=O)n(-c2ccc(C(C)(C)C#N)cc2)c2c3cc(-c4cnc5ccccc5c4)ccc3ncc21 [DACTOLISIB]

Kp at 1 h [1]: 0.86
IC50 [2]: 1300 nM
Kp at 5 min [3]: 1.1
Compound: CNC(=O)N(C)c1cc(-c2cnc(N)cc2C(F)(F)F)nc(N2CCOCC2)n1

IC50 [7]: > 9100 nM
Activity [5]: 6%
Activity [6]: > 12%
IC50 [2]: 2830 nM
Compound: Nc1cc(C(F)(F)F)c(-c2cc(N3CCOCC3)nc(N3CCOCC3)c2)cn1

AUC [8]: 0.762 µM·h
Ct [9]: 553 pmol/g
Ct [10]: 1813 pmol/g
IC50 [4]: 2880 nM
concentration at 5 min [11]: 1640 nM
half-life [12]: 1.2 h
bioavailability [13]: 46%
Vdss [14]: 4.4 L/kg
hepatic extraction ratio at 1 h [15]: 0.54
Kp at 1 h [1]: 0.9
IC50 [2]: 28 nM
hepatic extraction ratio at 1 h [16]: 0.27
hepatic extraction ratio at 1 h [17]: 0.67
Kp at 5 min [3]: 1.11
concentration at 1 h [18]: 616 nM
Compound: C[C@H]1COC(=O)N1c1nc(-c2cnc(N)nc2C(F)(F)F)cc(N2CCOCC2)n1

IC50 [2]: > 10000 nM
Compound: C[C@H]1OC(=O)N(c2nc(-c3cnc(N)nc3C(F)(F)F)cc(N3CCOCC3)n2)[C@H]1CN1CC[S+]([O-])CC1

IC50 [4]: 9100 nM and > 9100 nM
IC50 [7]: > 9100 nM
Activity [5]: < 2%
Activity [6]: < 2%
IC50 [2]: 5220 nM
Compound: Nc1cc(C(F)(F)F)c(-c2cc(N3CCS(=O)(=O)CC3)nc(N3CCOCC3)n2)cn1

IC50 [4]: 3610 nM
IC50 [2]: 172 nM
Compound: C[C@]1(CO)COC(=O)N1c1nc(-c2cnc(N)nc2C(F)(F)F)cc(N2CCOCC2)n1

AUC [8]: 0.708 µM·h
IC50 [4]: 2580 nM
half-life [12]: 5.2 h
bioavailability [13]: 23%
Vdss [14]: 3.9 L/kg
hepatic extraction ratio at 1 h [15]: 0.78
IC50 [2]: 37 nM
hepatic extraction ratio at 1 h [17]: 0.49
Compound: C[C@@H]1OC(=O)N(c2nc(-c3cnc(N)nc3C(F)(F)F)cc(N3CCOCC3)n2)[C@H]1CO

logD [19]: 2.6
IC50 [2]: 431 nM
Compound: Nc1cc(C(F)(F)F)c(-c2cc(N3CCNC3=O)nc(N3CCOCC3)n2)cn1

IC50 [4]: 5110 nM
IC50 [2]: 63 nM
Compound: C[C@H]1[C@H](CO)OC(=O)N1c1nc(-c2cnc(N)nc2C(F)(F)F)cc(N2CCOCC2)n1
